# Patent US6596728B1, “Substituted 1,3-diaryl-2-pyrid-2-yl-3-(pyrid-2-ylamino)propanol derivatives, process for their preparation, pharmaceuticals comprising these compounds and their use” (Aventis Pharma Deutschland GmbH, priority 1998, dated 2003)
# Target: T1, intestinal bile acid transportation system (Na+-dependent) in brush border membrane vesicles of the ileum (Oryctolagus cuniculus, UniProt Q28727)
# T1 construct: Preparation of Brush Border Membrane Vesicles from the Ileum of Rabbits; from tissue; host or cells: brush border membrane vesicles from terminal ileum of male New Zealand rabbits
# T1 sequence (Q28727 1-347): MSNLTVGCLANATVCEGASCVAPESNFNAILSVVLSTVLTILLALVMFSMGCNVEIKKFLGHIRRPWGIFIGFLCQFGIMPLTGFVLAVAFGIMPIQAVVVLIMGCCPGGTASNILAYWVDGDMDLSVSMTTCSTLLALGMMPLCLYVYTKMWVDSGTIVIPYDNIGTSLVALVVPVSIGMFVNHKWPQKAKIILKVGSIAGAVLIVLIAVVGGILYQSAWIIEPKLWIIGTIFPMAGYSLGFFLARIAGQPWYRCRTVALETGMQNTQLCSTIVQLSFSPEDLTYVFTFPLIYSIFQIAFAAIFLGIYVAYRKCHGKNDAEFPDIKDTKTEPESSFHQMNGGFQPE
# Test: Inhibition of Na+-dependent [3H]-taurocholate uptake in brush border membrane vesicles of the ileum of rabbits
# Assay type: biochemical
# Settings: quotient of the IC50Na of the reference substance taurochenodeoxycholate (TCDC) and of the test substance, 50 μM taurocholate, rabbit ileum vesicles
# Procedure: Biological testing of the compounds according to the present invention was carried out by determining the inhibition of [^3H]-taurocholate uptake in brush border membrane vesicles of the ileum of rabbits. The inhibition test was carried out as follows:
# 1. Preparation of Brush Border Membrane Vesicles from the Ileum of Rabbits
# Brush border membrane vesicles from the intestinal cells of the small intestine were prepared by the so-called Mg^2+ precipitation method. Male New Zealand rabbits (2 to 2.5 kg body weight) were sacrificed by intravenous injection of 0.5 ml T61®, an aqueous solution of 2.5 mg tetracaine HCl, […] embutramide and 25 mg mebezonium iodide. The small intestine was removed and rinsed with ice-cold physiological saline solution. The terminal 7/10 of the small intestine (measured in the oral-rectal direction, i.e., the terminal ileum, which contains the active Na^+-dependent bile acid transportation system) was used for preparation of the brush border membrane vesicles. The intestines were frozen in plastic bags under nitrogen at −80° C. For preparation of the membrane vesicles, the frozen intestines were thawed at 30° C. in a water bath. The mucosa was scraped off and suspended in 60 ml of ice-cold 12 mM TRIS/HCl buffer (pH 7.1)/300 mM mannitol, 5 mM EGTA/10 mg/l of phenylmethylsulfonyl fluoride/1 mg/l of trypsin inhibitor from soybeans (32 U/mg)/0.5 mg/l of trypsin inhibitor from bovine lung (193 U/mg)/5 mg/l of bacitracin. After dilution to 300 ml with ice-cold distilled water, the mixture was homogenized with an Ultraturrax (18-rod, IKA Werk Staufen, Germany) for 3 minutes at 75% of the maximum output by cooling with ice. After addition of 3 ml of 1 M MgCl2 solution (final concentration 10 mM), the mixture was allowed to stand for exactly 1 minute at 0° C. The cell membranes aggregate by addition of Mg^2+ and precipitate, with the exception of the brush border membranes. After centrifugation at 3000×g (5000 rpm, SS-34 rotor) for 15 minutes, the precipitate was discarded land the supernatant, which contains the brush border membranes, was centrifuged at 48000×g (20000 rpm, SS-34 rotor) for 30 minutes. The supernatant was discarded, and the precipitate was rehomogenized in 60 ml of 12 mM TRIS/HCl buffer (pH 7.1)/60 mM mannitol, 5 mM EGTA with a Potter Elvejhem homogenizer (Braun, Melsungen, 900 rpm, 10 strokes). After addition of 0.1 ml of 1 M MgCl2 solution and incubation for 15 minutes at 0° C., centrifugation was again carried out at 3000×g for 15 minutes. The supernatant was then centrifuged again at 48000×x g (20000 rpm, SS-34 rotor) for 30 minutes. The precipitate was taken up in 30 ml of 10 mM TRIS/HEPES buffer (pH 7.4)/300 mM mannitol and resuspended homogeneously by 20 strokes in a Potter Elvejhem homogenizer at 1000 rpm. After centrifugation at 48000×g (20000 rpm, SS-34 rotor) for 30 minutes, the precipitate was taken up in 0.5 to 2 ml of TRIS/HEPES buffer (pH 7.4)/280 mM mannitol (final concentration 20 mg/ml) and resuspended with the aid of a Tuberculin syringe with a 27-gauge needle. The vesicles were either used for transportation investigations directly after preparation or stored at −196° C. in 4 mg portions in liquid nitrogen.
# 2. Inhibition of the Na^+-dependent [^3H]taurocholate Uptake in Brush Border Membrane Vesicles of the Ileum
# The uptake of substrates in the brush border membrane vesicles described above was determined by means of the so-called membrane filtration technique. 10 μl of the vesicle suspension (100 μg of protein) were pipetted as drops onto the wall of a polystyrene incubation tube (11×70 mm) which contained the incubation medium with the corresponding ligands (90 μl). […]
row,Structure (SMILES),IC50Na-TCDC (μmol) / IC50Na-compound (μmol)
1,CC(C)(C)c1ccc(S(=O)(=O)Nc2ccccc2C(Nc2ccccn2)C(c2ccccn2)C(O)c2ccccc2)cc1 (centres unmarked) [Example 66],0.93
2,O=C(/C=C/c1cccs1)Nc1ccccc1[C@@H](Nc1ccccn1)[C@H](c1ccccn1)[C@H](O)c1ccccc1 [Example 53],0.46
3,COc1ccc(CCC(=O)Nc2ccccc2[C@@H](Nc2ccccn2)[C@H](c2ccccn2)[C@H](O)c2ccccc2)cc1OC [Example 35],0.36
4,O=S(=O)(Nc1ccccc1C(Nc1ccccn1)C(c1ccccn1)C(O)c1ccccc1)c1cc(Cl)cc(Cl)c1O (centres unmarked) [Example 74],0.70
5,CS(=O)(=O)c1ccc(S(=O)(=O)Nc2ccccc2C(Nc2ccccn2)C(c2ccccn2)C(O)c2ccccc2)cc1 (centres unmarked) [Example 94],0.40
6,CCOCC(=O)Nc1ccccc1[C@@H](Nc1ccccn1)[C@H](c1ccccn1)[C@H](O)c1ccccc1 [Example 50],0.67
7,O=[N+]([O-])c1ccccc1S(=O)(=O)Nc1ccccc1C(Nc1ccccn1)C(c1ccccn1)C(O)c1ccccc1 (centres unmarked) [Example 65],0.84
8,Cc1c(C)c(S(=O)(=O)Nc2ccccc2C(Nc2ccccn2)C(c2ccccn2)C(O)c2ccccc2)c(C)c2c1OC(C)(C)CC2 (centres unmarked) [Example 83],0.24
9,O=S(=O)(Nc1ccccc1C(Nc1ccccn1)C(c1ccccn1)C(O)c1ccccc1)c1ccc(F)cc1 (centres unmarked) [Example 73],0.92
10,CN(C)c1cccc2c(S(=O)(=O)Nc3ccccc3C(Nc3ccccn3)C(c3ccccn3)C(O)c3ccccc3)cccc12 (centres unmarked) [Example 89],0.90
11,C#CCCC(=O)Nc1ccccc1[C@@H](Nc1ccccn1)[C@H](c1ccccn1)[C@H](O)c1ccccc1 [Example 31],1.13
12,CCOC(=O)/C=C/C(=O)Nc1ccccc1[C@@H](Nc1ccccn1)[C@H](c1ccccn1)[C@H](O)c1ccccc1 [Example 57],0.79
13,O=C(CNC(=O)OCc1ccccc1)Nc1ccccc1[C@@H](Nc1ccccn1)[C@H](c1ccccn1)[C@H](O)c1ccccc1 [Example 64],0.39
14,O=S(=O)(Nc1ccccc1C(Nc1ccccn1)C(c1ccccn1)C(O)c1ccccc1)c1ccc(Cl)s1 (centres unmarked) [Example 82],0.79
15,O=C(CSc1ncccn1)Nc1ccccc1[C@@H](Nc1ccccn1)[C@H](c1ccccn1)[C@H](O)c1ccccc1 [Example 56],1.15
16,CCCCCC#CC(=O)Nc1ccccc1[C@@H](Nc1ccccn1)[C@H](c1ccccn1)[C@H](O)c1ccccc1 [Example 60],0.62
17,O=C(CN1C(=O)c2ccccc2C1=O)Nc1ccccc1[C@@H](Nc1ccccn1)[C@H](c1ccccn1)[C@H](O)c1ccccc1 [Example 47],1.00
18,O=C(Cc1ccc(Cl)cc1)Nc1ccccc1[C@@H](Nc1ccccn1)[C@H](c1ccccn1)[C@H](O)c1ccccc1 [Example 33],0.52

row,Structure (SMILES),IC50Na-TCDC (μmol) / IC50Na-compound (μmol)
1,CN(CC(=O)Nc1ccccc1[C@@H](Nc1ccccn1)[C@H](c1ccccn1)[C@H](O)c1ccccc1)C(=O)OC(C)(C)C [Example 49],0.86
2,COc1cc(/C=C/C(=O)Nc2ccccc2[C@@H](Nc2ccccn2)[C@H](c2ccccn2)[C@H](O)c2ccccc2)ccc1O [Example 52],1.11
3,O=C(Cc1cccs1)Nc1ccccc1[C@@H](Nc1ccccn1)[C@H](c1ccccn1)[C@H](O)c1ccccc1 [Example 34],0.81
4,O=C(Cc1ccccc1C(F)(F)F)Nc1ccccc1[C@@H](Nc1ccccn1)[C@H](c1ccccn1)[C@H](O)c1ccccc1 [Example 38],0.38
5,O=C(O)c1ccc(S(=O)(=O)Nc2ccccc2C(Nc2ccccn2)C(c2ccccn2)C(O)c2ccccc2)cc1 (centres unmarked) [Example 91],0.92
6,CC(C)S(=O)(=O)Nc1ccccc1C(Nc1ccccn1)C(c1ccccn1)C(O)c1ccccc1 (centres unmarked) [Example 77],0.22
7,O=C(CCC(=O)c1ccc(Cl)cc1)Nc1ccccc1[C@@H](Nc1ccccn1)[C@H](c1ccccn1)[C@H](O)c1ccccc1 [Example 36],0.36
8,N[C@@H](Cc1ccccc1)C(=O)N1CCC[C@H]1C(=O)Nc1ccccc1[C@@H](Nc1ccccn1)[C@H](c1ccccn1)[C@H](O)c1ccccc1 [Example 2c],1.06
9,CC(=O)Nc1nc(C)c(S(=O)(=O)Nc2ccccc2C(Nc2ccccn2)C(c2ccccn2)C(O)c2ccccc2)s1 (centres unmarked) [Example 93],1.10
10,N#CC1(C(=O)Nc2ccccc2[C@@H](Nc2ccccn2)[C@H](c2ccccn2)[C@H](O)c2ccccc2)CC1 [Example 62],0.99
11,Cc1ccnc(SCC(=O)Nc2ccccc2[C@@H](Nc2ccccn2)[C@H](c2ccccn2)[C@H](O)c2ccccc2)n1 [Example 61],0.66
12,CCCCOc1ccc(S(=O)(=O)Nc2ccccc2C(Nc2ccccn2)C(c2ccccn2)C(O)c2ccccc2)cc1 (centres unmarked) [Example 87],0.84
13,O=C(Cc1ccsc1)Nc1ccccc1[C@@H](Nc1ccccn1)[C@H](c1ccccn1)[C@H](O)c1ccccc1 [Example 41],0.61
14,O=C(COc1ccc(F)cc1)Nc1ccccc1[C@@H](Nc1ccccn1)[C@H](c1ccccn1)[C@H](O)c1ccccc1 [Example 44],1.05
15,CC1(C)[C@@H]2CCC1(CS(=O)(=O)Nc1ccccc1C(Nc1ccccn1)C(c1ccccn1)C(O)c1ccccc1)C(=O)C2 (some centres unmarked) [Example 69],1.00
16,Cc1ccccc1OCC(=O)Nc1ccccc1[C@@H](Nc1ccccn1)[C@H](c1ccccn1)[C@H](O)c1ccccc1 [Example 45],1.03
17,O=S(=O)(Nc1ccccc1C(Nc1ccccn1)C(c1ccccn1)C(O)c1ccccc1)c1cc(C(F)(F)F)cc(C(F)(F)F)c1 (centres unmarked) [Example 78],0.27
